In PubChem BioAssay (NCI):
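At the GI50, growth is halved. Definition used: TGI = concentration required for complete inhibition of growth.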

Legend:
Assay in all cases: NCI tumour cell line growth inhibition, 384-well format
786-0 renal = tested on: 786-0 renal
A498 renal = tested on: A498 renal
A549 NSCLC = tested on: A549 NSCLC
ACHN renal = tested on: ACHN renal
BT-549 breast = tested on: BT-549 breast
CAKI-1 renal = tested on: CAKI-1 renal
CCRF-CEM leukemia = tested on: CCRF-CEM leukemia
COLO 205 colon = tested on: COLO 205 colon
DU-145 prostate = tested on: DU-145 prostate
EKVX NSCLC = tested on: EKVX NSCLC
HCC-2998 colon = tested on: HCC-2998 colon
HCT-116 colon = tested on: HCT-116 colon
HCT-15 colon = tested on: HCT-15 colon
HL-60(TB) leukemia = tested on: HL-60(TB) leukemia
HOP-62 NSCLC = tested on: HOP-62 NSCLC
HS 578T breast = tested on: HS 578T breast
HT29 colon = tested on: HT29 colon
IGROV1 ovarian = tested on: IGROV1 ovarian
K-562 leukemia = tested on: K-562 leukemia
KM12 colon = tested on: KM12 colon
LOX IMVI melanoma = tested on: LOX IMVI melanoma
M14 melanoma = tested on: M14 melanoma
MALME-3M melanoma = tested on: MALME-3M melanoma
MCF7 breast = tested on: MCF7 breast
MDA-MB-231 breast = tested on: MDA-MB-231 breast
MDA-MB-435 melanoma = tested on: MDA-MB-435 melanoma
MDA-MB-468 breast = tested on: MDA-MB-468 breast
MOLT-4 leukemia = tested on: MOLT-4 leukemia
NCI-H226 lung = tested on: NCI-H226 lung
NCI-H23 lung = tested on: NCI-H23 lung
NCI-H322M lung = tested on: NCI-H322M lung
NCI-H460 NSCLC = tested on: NCI-H460 NSCLC
NCI-H522 lung = tested on: NCI-H522 lung
NCI/ADR-RES ovarian = tested on: NCI/ADR-RES ovarian
OVCAR-3 ovarian = tested on: OVCAR-3 ovarian
OVCAR-4 ovarian = tested on: OVCAR-4 ovarian
OVCAR-5 ovarian = tested on: OVCAR-5 ovarian
PC-3 prostate = tested on: PC-3 prostate
RPMI-8226 leukemia = tested on: RPMI-8226 leukemia
SF-268 CNS = tested on: SF-268 CNS
SF-295 CNS = tested on: SF-295 CNS
SF-539 CNS = tested on: SF-539 CNS
SK-MEL-28 melanoma = tested on: SK-MEL-28 melanoma
SK-MEL-5 melanoma = tested on: SK-MEL-5 melanoma
SK-OV-3 ovarian = tested on: SK-OV-3 ovarian
SN12C renal = tested on: SN12C renal
SNB-19 CNS = tested on: SNB-19 CNS
SNB-75 CNS = tested on: SNB-75 CNS
SW-620 colon = tested on: SW-620 colon
T-47D breast = tested on: T-47D breast
TK-10 renal = tested on: TK-10 renal
U251 glioblastoma = tested on: U251 glioblastoma
UACC-62 melanoma = tested on: UACC-62 melanoma
UO-31 renal = tested on: UO-31 renal

Cc1ccc(C(=O)N(CCCN)C(c2oc3cc(Cl)ccc3c(=O)c2Cc2ccccc2)C(C)C)cc1 (stereo not drawn)
GI50 ([…]-0 renal): < 10 nM
TGI (786-0 renal): 1390 nM
GI50 (A498 renal): 29 nM
TGI (A498 renal): 2010 nM
GI50 (A549 NSCLC): < 10 nM
TGI (A549 NSCLC): 1590 nM
GI50 (ACHN renal): 1160 nM
TGI (ACHN renal): 2420 nM
GI50 (BT-549 breast): < 10 nM
TGI (BT-549 breast): 1360 nM
GI50 (CAKI-1 renal): < 10 nM
TGI (CAKI-1 renal): 1950 nM
GI50 (CCRF-CEM leukemia): < 10 nM
TGI (CCRF-CEM leukemia): < 10 nM
GI50 (COLO 205 colon): < 10 nM
TGI (COLO 205 colon): < 10 nM
GI50 (DU-145 prostate): < 10 nM
TGI (DU-145 prostate): 1100 nM
GI50 (EKVX NSCLC): < 10 nM
TGI (EKVX NSCLC): 1920 nM
GI50 (HCC-2998 colon): < 10 nM
TGI (HCC-2998 colon): 542 nM
GI50 (HCT-116 colon): < 10 nM
TGI (HCT-116 colon): 1210 nM
GI50 (HCT-15 colon): < 10 nM
TGI (HCT-15 colon): 1230 nM
GI50 (HL-60(TB) leukemia): < 10 nM
TGI (HL-60(TB) leukemia): < 10 nM
GI50 (HOP-62 NSCLC): < 10 nM
TGI (HOP-62 NSCLC): 1760 nM
GI50 (HS 578T breast): < 10 nM
TGI (HS 578T breast): < 10 nM
GI50 (HT29 colon): < 10 nM
TGI (HT29 colon): < 10 nM
GI50 (IGROV1 ovarian): 511 nM
TGI (IGROV1 ovarian): 2140 nM
GI50 (K-562 leukemia): < 10 nM
TGI (K-562 leukemia): < 10 nM
GI50 (KM12 colon): < 10 nM
TGI (KM12 colon): 1180 nM
GI50 (LOX IMVI melanoma): < 10 nM
TGI (LOX IMVI melanoma): 1810 nM
GI50 (M14 melanoma): < 10 nM
TGI (M14 melanoma): < 10 nM
GI50 (MALME-3M melanoma): < 10 nM
TGI (MALME-3M melanoma): 1740 nM
GI50 (MCF7 breast): < 10 nM
TGI (MCF7 breast): 1370 nM
GI50 (MDA-MB-231 breast): < 10 nM
TGI (MDA-MB-231 breast): 1840 nM
GI50 (MDA-MB-435 melanoma): < 10 nM
TGI (MDA-MB-435 melanoma): < 10 nM
GI50 (MDA-MB-468 breast): < 10 nM
TGI (MDA-MB-468 breast): < 10 nM
GI50 (MOLT-4 leukemia): < 10 nM
TGI (MOLT-4 leukemia): < 10 nM
GI50 (NCI-H226 lung): 1500 nM
TGI (NCI-H226 lung): 2840 nM
GI50 (NCI-H23 lung): < 10 nM
TGI (NCI-H23 lung): < 10 nM
GI50 (NCI-H322M lung): < 10 nM
TGI (NCI-H322M lung): 2030 nM
GI50 (NCI-H460 NSCLC): < 10 nM
TGI (NCI-H460 NSCLC): < 10 nM
GI50 (NCI-H522 lung): < 10 nM
TGI (NCI-H522 lung): < 10 nM
GI50 (NCI/ADR-RES ovarian): 129 nM
TGI (NCI/ADR-RES ovarian): 286 nM
GI50 (OVCAR-3 ovarian): < 10 nM
TGI (OVCAR-3 ovarian): < 10 nM
GI50 (OVCAR-4 ovarian): 1270 nM
TGI (OVCAR-4 ovarian): 2560 nM
GI50 (OVCAR-5 ovarian): < 10 nM
TGI (OVCAR-5 ovarian): 1570 nM
GI50 (PC-3 prostate): < 10 nM
TGI (PC-3 prostate): 1550 nM
GI50 (RPMI-8226 leukemia): < 10 nM
TGI (RPMI-8226 leukemia): < 10 nM
GI50 (SF-268 CNS): < 10 nM
TGI (SF-268 CNS): < 10 nM
GI50 (SF-295 CNS): < 10 nM
TGI (SF-295 CNS): 1510 nM
GI50 (SF-539 CNS): < 10 nM
TGI (SF-539 CNS): 1260 nM
GI50 (SK-MEL-28 melanoma): 1310 nM
TGI (SK-MEL-28 melanoma): 2600 nM
GI50 (SK-MEL-5 melanoma): < 10 nM
TGI (SK-MEL-5 melanoma): < 10 nM
GI50 (SK-OV-3 ovarian): < 10 nM
TGI (SK-OV-3 ovarian): 1780 nM
GI50 (SN12C renal): < 10 nM
TGI (SN12C renal): 1880 nM
GI50 (SNB-19 CNS): < 10 nM
TGI (SNB-19 CNS): 1460 nM
GI50 (SNB-75 CNS): < 10 nM
TGI (SNB-75 CNS): 1810 nM
GI50 (SW-620 colon): < 10 nM
TGI (SW-620 colon): 275 nM
GI50 (T-47D breast): < 10 nM
TGI (T-47D breast): < 10 nM
GI50 (TK-10 renal): 1540 nM
TGI (TK-10 renal): 2900 nM
GI50 (U251 glioblastoma): < 10 nM
TGI (U251 glioblastoma): 1460 nM
GI50 (UACC-62 melanoma): < 10 nM
TGI (UACC-62 melanoma): 1290 nM
GI50 (UO-31 renal): 1110 nM
TGI (UO-31 renal): 2340 nM
